Laboratory results reported in patent US20210063391A1, “METHODS AND SYSTEMS FOR BIOCELLULAR MARKER DETECTION AND DIAGNOSIS USING A MICROFLUIDIC PROFILING DEVICE” (The Regents of the University of Michigan, priority 2018, published 2021).

What was measured:
[1] = tested on: Stat1/3; assay: Inflammation signature quantification of treated PBMC lysates by microfluidic immunoblotting (p-Stat1, p-Stat3); format: cell-based
Description: An exemplary procedure for immunoblotting with a device of the present disclosure is as follows. A protein-containing sample is loaded into the wells of a gel (e.g., polyacrylamide gel) and proteins present in the sample are separated by gel electrophoresis (e.g., native gel electrophoresis, SDS-PAGE, etc.). A membrane (e.g., PVDF membrane) is placed atop the gel to allow transfer of the proteins onto the membrane. The membrane is then placed on a glass slide. A microfluidic device is placed on top of membrane, and the microfluidic channels are aligned with the protein lanes. Blocking buffer (e.g., Tween-20 and BSA) is optionally injected in each of the channels. In embodiments with a blocking step, the inlets/outlets of the channels are covered (e.g., with tape) to minimize evaporation during incubation. Antibodies are injected into the appropriate channels (e.g., different antibodies in each microchannel of a set). The inlets/outlets are covered (e.g., with tape) to minimize evaporation during incubation. Following incubation (e.g., 1 hours), the microfluidic device is removed, and the membrane is transferred to a solution of an appropriate secondary antibody (e.g., the membrane is left in this solution for 1 hour, or until the membrane is completely wet). The membrane is removed from the secondary antibody solution and washed with fresh blocking buffer (e.g., 3 minutes, 5 times each). The membrane is transferred to a developing solution (e.g., 30 minutes), and the membrane is removed and rinsed with DI water. The membrane is then allowed to dry. […]
(§1) FIGS. 2A-2B include representative graphs of inflammation signature quantification for PBMC lysates treated with LPS, Heparinase III and LPS+Heparinase III for 2 hours, according to one embodiment of the present disclosure. […]
(§2) FIGS. 3A-3B include representative graphs of inflammation signature quantification for PBMC lysates treated with Hyaluronidase (Hyal), Neuraminidase (Neu) and Spironolactone for 2 hours, according to one embodiment of the present disclosure. […]

[2] = tested on: p65; assay: Inflammation signature quantification of treated PBMC lysates by microfluidic immunoblotting (p-p65); format: cell-based; details: PBMCs treated 2 hours
Description: An exemplary procedure for immunoblotting with a device of the present disclosure is as follows. A protein-containing sample is loaded into the wells of a gel (e.g., polyacrylamide gel) and proteins present in the sample are separated by gel electrophoresis (e.g., native gel electrophoresis, SDS-PAGE, etc.). A membrane (e.g., PVDF membrane) is placed atop the gel to allow transfer of the proteins onto the membrane. The membrane is then placed on a glass slide. A microfluidic device is placed on top of membrane, and the microfluidic channels are aligned with the protein lanes. Blocking buffer (e.g., Tween-20 and BSA) is optionally injected in each of the channels. In embodiments with a blocking step, the inlets/outlets of the channels are covered (e.g., with tape) to minimize evaporation during incubation. Antibodies are injected into the appropriate channels (e.g., different antibodies in each microchannel of a set). […]
as §1, §2

Substance | activation of Stat1/3 ([1]; PBMCs treated 2 hours, 1.5 U/mL Heparinase III, compared with 1 μg/ml LPS) | effect on LPS Stat1/3 response ([1]; PBMCs, 2 hours, Heparinase III 1.5 U/mL together with LPS 1 μg/ml) | p65 activation ([2]; 1.5 U/mL Heparinase III and/or 1 μg/ml LPS) | Stat1/3 activation ([1]; PBMCs treated 2 hours, 0.25 U/mL Neuraminidase vs 2 U/mL Hyaluronidase and 100 μM Spironolactone) | p65 activation ([2]; 0.25 U/mL Neuraminidase vs 2 U/mL Hyaluronidase and 100 μM Spironolactone)
Heparinase III | leads to activation of Stat1/3, although not as much as LPS | attenuates LPS Stat1/3 response when done together | increases p65 activation though similar to LPS response | – | –
Neuraminidase | – | – | – | increases Stat1/3 and p65 activation as compare to Hyal and Spiro | increases Stat1/3 and p65 activation as compare to Hyal and Spiro
